Results taken from patent publication US20090186868A1, “Taxane Compound Having Azetidine Ring Structure” (Daiichi Sankyo Company Limited, priority 2005, published 2009).
≈ marks a conversion by molar mass, not a printed value. Read-outs that look alike come from different tables or passages of the source.

Assays:
[1] = tested on: HCT-15 (P glycoprotein (P-gp) expressing human colon cancer cell line); assay: Anti-cell activity (MTT) against human tumor cell line HCT-15; type: cell-based; settings: 72 h, HCT-15 (P-gp expressing), cultured three days, read-out: HCT-15 (GI50 value, ng/mL)
Procedure: (§1) Three types of human tumor cell lines (all of the cells were obtained from American Type Culture Collection) were seeded on 96-well microplates as follows.
(§2) NCI-H460 (human lung cancer cell line): 5.0×10^2 cells/190 μL/well HCT-15 (P glycoprotein (P-gp) expressing human colon cancer cell line, J. Natl. Cancer Inst., 2001, 93:1234-1245): 1.0×10^3 cells/190 μL/well HCT116 (human colon cancer cell line): 1.0×10^3 cells/190 μL/well On the next day, each test compound was dissolved in 100% dimethyl sulfoxide (DMSO) at a concentration of 10 mg/mL. This solution was diluted with 0.01% Cremophor EL-PBS(−) (Cremophor EL: Sigma Chemical Co., St. Louis, Mo., USA, PBS: Invitrogen Corp., Carlsbad, Calif., USA), and 10 μL of the diluted solution was added to each well (final concentration: 100 to 0.000381 ng/mL). The cells were cultured for three days, and then […] of a 5 mg/mL solution of 3-(4,5-dimethylthiazol-2-yl)-2,5-diphenyl-2H-tetrazolium bromide (MTT, Sigma Chemical Co.) was added to each well. The cells were further cultured for 4 hours, and then the medium was removed by centrifugation. By adding 150 μL of DMSO to each well, the produced formazan product was dissolved. The absorbance of the solution was measured at 540 nm. The drug concentration suppressing cell proliferation of the drug addition group to 50% of the cell proliferation of the drug free group (GI50 value, ng/mL) was calculated, and used as an index of anti-cell activity.

[2] = tested on: HCT116 (human colon cancer cell line); assay: Anti-cell activity (MTT) against human tumor cell line HCT116; type: cell-based; settings: HCT-116, 72 h, HCT116, cultured three days, read-out: HCT116 (GI50 value, ng/mL)
Procedure: as §1, §2

[3] = tested on: M5076 (histiocytoma expressing P-gp); assay: Antitumor effect in mice subcutaneously transplanted with M5076; type: in vivo, Mice (C57BL/6); settings: for Therapeutic index: MTD/MED; for Effective dose range: range from MED to MTD, antitumor effect of 58% or more considered effective
Text: (§3) Mice (C57BL/6, Charles River Japan) were subcutaneously transplanted with B16 melanoma BL6 (Cancer Res., Poste, G., Fidler, I. J. et al., 1980, 40:1636; Bioorg. Med. Chem. Lett., Takeda, Y. et al., 2003, 13:185-190), or M5076 (obtained from Japanese Foundation for Cancer Research), which is a histiocytoma expressing P-gp. Four days after the transplantation in the case of B16 melanoma BL6, or 8 to 10 days after the transplantation in the case of M5076, each test compound suspended in a 0.5% aqueous solution of carboxymethylcellulose sodium, or dissolved in EtOH:Tween 80:5% glucose=5:5:90 (v/v %) was orally (po) or intravenously (iv) administered to the mice. Ten days after the administration in the case of B16 melanoma BL6, or 8 to 10 days after the administration in the case of M5076, the mice were dissected, and tumor weights were measured. The antitumor effect was calculated in accordance with the following equation.
(§4) [1−(Average tumor weight of compound administration group/average tumor weight of solvent administration group)]×100
(§5) An antitumor effect of 58% or more was considered effective (Int. J. Cancer, 1989, 43:637-44), and the maximum tolerance dose (MTD, maximum dose not causing death, mg/kg) and minimum effective dose (MED, mg/kg) showing effectiveness were obtained, respectively. The therapeutic index was calculated in accordance with the equation: MTD/MED.
(§6) ND means that the test was not performed. The effective dose range means the range of from MED to MTD.

B16 melanoma BL6 = assay: Antitumor effect in mice subcutaneously transplanted with B16 melanoma BL6; type: in vivo, Mice (C57BL/6); settings: MTD/MED
Text: as §3, §4, §5, §6

[4] = Solubility in first and second solution for disintegration test (Japanese Pharmacopoeia); type: physicochemical; settings: thermodynamic from solid, 12 hours or longer
Procedure: Solubility of each compound was determined in the first solution for disintegration test according to Japanese Pharmacopoeia (henceforth referred to as the first solution, solution obtained by adding 7 mL of hydrochloric acid and water to 2.00 g of sodium chloride to dissolve sodium chloride and fill up the solution to 1000 mL, pH 1.2) and the second solution for disintegration test according to Japanese Pharmacopoeia (henceforth referred to as the second solution, solution obtained by adding 118 mL of 0.2 mol/L solution of sodium hydroxide to 6.80 g of potassium dihydrogenphosphate, adding water to the mixture to dissolve potassium dihydrogenphosphate and filling up the solution to 1000 mL, pH 6.8).
Each test compound was dissolved in 100% dimethyl sulfoxide (DMSO) at a concentration of 10 mM, and 50 μL of the solution was lyophilized. The lyophilized test compound was added with 250 μL of the first solution or second solution, and the mixture was stored at room temperature for 12 hours or longer under light shielding, and filtered (0.7 μm). The filtrate was taken in a volume of 90 μL, and added with 50% DMSO (90 μL) to obtain a two-fold diluted solubility sample. The two-fold dilution solubility sample was taken in a volume of 20 μL, and added with 50% DMSO (180 μL) to obtain a […] diluted solubility sample. Solubility of each test sample was determined by quantifying the test compound in the resulting diluted solubility test samples using high-performance liquid chromatography.

[5] = tested on: NCI-H460 (human lung cancer cell line); assay: Anti-cell activity (MTT) against human tumor cell line NCI-H460; type: cell-based; settings: 72 h, NCI-H460, cultured three days, read-out: NCI-H460 (GI50 value, ng/mL)
Procedure: as §1, §2

[6] = aqueous buffer, second solution for disintegration test, pH 6.8, room temperature, read-out: Solubility (μg/mL) pH 6.8
[7] = simulated gastric fluid, first solution for disintegration test, pH 1.2, room temperature, read-out: Solubility (μg/mL) pH 1.2

| Structure (SMILES) | GI50 [1] | GI50 [2] | Therapeutic index ([3]; M5076, iv) | Effective dose range ([3]; M5076, iv) | Therapeutic index ([3]; M5076, po) | Effective dose range ([3]; M5076, po) | Therapeutic index (B16 melanoma BL6; B16 Melanoma BL6, iv) | Therapeutic index (B16 melanoma BL6; B16 Melanoma BL6, po) | solubility [4, 6] | solubility [4, 7] | GI50 [5] |
| --- | --- | --- | --- | --- | --- | --- | --- | --- | --- | --- | --- |
| CC(=O)O[C@@]12CO[C@@H]1CC[C@@]1(C)[C@@H]3O[C@H](CN4CCC4)O[C@@H]3C3=C(C)[C@@H](OC(=O)[C@H](O)[C@@H](NC(=O)OC(C)(C)C)c4ncccc4F)C[C@@](O)([C@@H](OC(=O)c4ccccc4)[C@@H]12)C3(C)C [Example 2, (1S,2S,3R,4S,5R,8R,9S,10R,13S)-4-(Acetoxy)-9,10-[(1S)-2-(azetidino)ethylidenedioxy]-2-(benzoyloxy)-5,20-epoxy-1-hydroxytax-11-en-13-yl (2R,3S)-3-(tert-butoxycarbonylamino)-3-(3-fluoro-2-pyridyl)-2-hydroxypropionate] | 2.31 ng/mL (≈ 0.00258 µM) | 0.669 ng/mL (≈ 0.000748 µM) | 1.0 | 14.7 mg/kg | 2.0 | 13.7 to 28 mg/kg | 2.9 | 2.9 | 170 µg/mL (≈ 190 µM) | 1100 µg/mL (≈ 1230 µM) | 0.606 ng/mL (≈ 0.000678 µM) |
| COC1CN(C[C@@H]2O[C@@H]3C4=C(C)[C@@H](OC(=O)[C@H](O)[C@@H](NC(=O)OC(C)(C)C)c5ncccc5F)C[C@@](O)([C@@H](OC(=O)c5ccccc5)[C@H]5[C@@](C)(CC[C@H]6OC[C@]65OC(C)=O)[C@@H]3O2)C4(C)C)C1 [Example 8, (1S,2S,3R,4S,5R,8R,9S,10R,13S)-4-(Acetoxy)-2-(benzoyloxy)-5,20-epoxy-1-hydroxy-9,10-[(1S)-2-(3-methoxyazetidino)ethylidenedioxy]tax-11-en-13-yl (2R,3S)-3-(tert-butoxycarbonylamino)-3-(3-fluoro-2-pyridyl)-2-hydroxypropionate] | 0.236 ng/mL (≈ 0.000255 µM) | 0.155 ng/mL (≈ 0.000168 µM) | – | – | 1.4 | 21.0 to 30.0 mg/kg | – | 2.9 | 10 µg/mL (≈ 10.8 µM) | 600 µg/mL (≈ 649 µM) | 0.128 ng/mL (≈ 0.000139 µM) |
